The text below walks through data of patent US20250257077A1, “BRIDGED BICYCLIC HETEROCYCLOALKYL PYRIDO-[3,4-d]PYRIDAZINE AMINE DERIVATIVES USEFUL AS NLRP3 INHIBITORS” (Ventus Therapeutics U.S., Inc., priority 2022, published 2025).

SMILES strings stand for the structures. Converted amounts (≈) assume the structure as drawn. Read-outs that look alike come from different tables or passages of the source. Some results are limits rather than exact numbers.

Data set [1] deals with T1, human NLRP3 (Homo sapiens, UniProt Q96P20).
T1 construct: Human whole blood is drawn from healthy volunteers after obtaining written informed consent; from tissue
T1 sequence (Q96P20 whole entry): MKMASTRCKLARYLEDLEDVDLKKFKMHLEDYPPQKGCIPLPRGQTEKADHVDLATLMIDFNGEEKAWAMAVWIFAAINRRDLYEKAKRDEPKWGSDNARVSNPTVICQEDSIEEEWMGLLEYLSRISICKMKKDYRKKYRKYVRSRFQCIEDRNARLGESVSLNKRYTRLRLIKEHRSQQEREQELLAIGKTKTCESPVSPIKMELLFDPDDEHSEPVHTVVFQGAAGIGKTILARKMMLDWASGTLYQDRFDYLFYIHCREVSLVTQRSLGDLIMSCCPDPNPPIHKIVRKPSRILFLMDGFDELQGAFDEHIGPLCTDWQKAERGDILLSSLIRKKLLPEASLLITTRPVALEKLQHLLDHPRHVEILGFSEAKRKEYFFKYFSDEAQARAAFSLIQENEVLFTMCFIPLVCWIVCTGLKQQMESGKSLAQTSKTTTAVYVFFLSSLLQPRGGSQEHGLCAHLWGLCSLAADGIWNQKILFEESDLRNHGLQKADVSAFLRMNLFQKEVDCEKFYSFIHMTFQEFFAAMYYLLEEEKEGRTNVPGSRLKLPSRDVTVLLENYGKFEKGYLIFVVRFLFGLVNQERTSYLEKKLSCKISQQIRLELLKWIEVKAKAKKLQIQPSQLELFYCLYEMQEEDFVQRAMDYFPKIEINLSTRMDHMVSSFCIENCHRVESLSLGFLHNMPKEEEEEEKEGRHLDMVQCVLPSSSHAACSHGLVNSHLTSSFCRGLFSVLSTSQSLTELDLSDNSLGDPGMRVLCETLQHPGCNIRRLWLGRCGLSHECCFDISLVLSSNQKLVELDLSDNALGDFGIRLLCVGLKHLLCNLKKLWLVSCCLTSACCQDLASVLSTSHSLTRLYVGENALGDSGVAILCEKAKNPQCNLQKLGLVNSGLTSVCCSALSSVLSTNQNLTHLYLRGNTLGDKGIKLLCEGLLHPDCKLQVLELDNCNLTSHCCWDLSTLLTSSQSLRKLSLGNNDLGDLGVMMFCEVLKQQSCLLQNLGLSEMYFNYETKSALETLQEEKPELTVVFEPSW
The data set can be described thus: Human Whole Blood (hWB) NLRP3 Assay. The format is cell-based. The conditions noted are these: LPS priming, ATP activation, IL-1β levels. How it is done: (ii) Human Whole Blood (hWB) NLRP3 Assay
Human whole blood is drawn from healthy volunteers after obtaining written informed consent. Heparin lithium coated tubes are used to collect blood from volunteers. Blood samples are distributed on 96 well plates using 90 μl per well. Priming is performed by adding 5 μl of LPS (026: B6; Sigma L-2654) at a final concentration of 1 μg/ml for 4.5 hours in a humidified incubator with 37° C. 5% CO2. Thirty minutes prior to NLRP3 activation, 5 μl of a 20× compound solution or vehicle (2% dimethylsulfoxide (DMSO)) is added to each well and plates were incubated on a shaker (450 rpm) in a humidified incubator with 37° C., 5% CO2. Activation is then performed by adding 3.3 μl of a 31× ATP solution per well. At the end of the 30 minutes stimulation, the plates are centrifuged (800 g, 10 min, room temperature) and the plasma from each well is frozen at −80° C. IL-1β levels in the supernatant were analyzed using a mesoscale discovery assay (MSD K151TUK) according to the manufacturers’ instructions.

A short description of data set [2]: Brain Levels (Kp and Kpu,u). The conditions noted are these: for Kp at 24 h: mice dosed at 20 mpk PO, whole brain AUC over 24 h divided by plasma AUC. Format: in vivo, CDI mice. The protocol: (iv) Brain Levels (Kp and Kpu,u)—NLRP3
The in vivo total brain to plasma ratio was assessed in CDI mice after oral administration of the compound. Blood was collected at several timepoints up to 24 h, and transferred into plastic micro centrifuge tubes with EDTA-K2 as anticoagulant. Blood samples were centrifuged at 4000 g for 5 minutes at 4° C., to obtain plasma, then immediately frozen and stored at −75±15° C., prior to analysis. Animals were terminally anaesthetized with a rising concentration of CO2 gas at about 1 minute. At selected timepoints, whole brains were removed from the skull, rinsed in cold PBS to remove blood, dried with clean gauze, then frozen in liquid nitrogen and kept at −75±15° C. before analysis. At the time of analysis, brain samples were homogenized with PBS by tissue weight (g) to PBS volume (mL) ratio 1:3.
Plasma and brain drug levels were quantified by LC/MS/MS on an AB Sciex Triple Quad 5500+instrument, after separation on a HALO 160 A ES-C18, 2.7 μm 2.1×50 mm column. Quantitation was performed using a calibration curve prepared in blank plasma or blank brain homogenate. The software WinNonlin (Phoenix™) was used for pharmacokinetic analysis from the concentrations versus time data, including the AUCinf and AUClast. The Kp ratio (total brain concentration over total plasma concentration) was calculated as (AUCtot,br)/(AUCtot,pl).
The unbound brain exposure was assessed as Kpuu, which is the free brain/free plasma concentration ratio (Cu,bt/Cu,pl). The Cu,br/Cu,pl ratios were obtained from in vivo total brain to plasma ratios (Ctot,br/Ctot,pl) by using in vitro determined Fu,br and Fu,pl.
Plasma protein binding and brain homogenate protein binding were measured by equilibrium dialysis in a HTDialysis plate. The dialysis membranes were soaked in ultrapure water for 60 minutes to separate strips, then in 20% ethanol for 20 minutes, finally in dialysis buffer for 20 minutes. The dialysis set up was assembled according to the manufacturer's instruction. Each cell received 150 μL of plasma or brain homogenate spiked with 1 mM of compound, and dialyzed against an equal volume of dialysis buffer (PBS). The dialysis plate was sealed and incubated in an incubator at 37° C. with 5% CO2 at 100 rpm for 6 hours. At the end of incubation, compound concentration was measured in both chambers by LC-MS/MS on a Triple Quad™ 5500 from AB Inc after separation on a XSelect Hss T3.2.5μ (2.1×30 mm) column. Free fraction (Fu) was calculated as (Peak Area Ratio buffer chamber/Peak Area Ratio plasma chamber). Kpuu=(AUCtot,br×Fu,br)/([…])
The Kpu,u was then calculated upon correcting this kp value with mouse plasma protein binding and mouse brain homogenates binding.
A Kpu,u value >0.3 is considered brain penetrant, and a Kpu,u value ≤0.3 is not considered brain penetrant. When the Kpu,u value is not determined, the Kp value may be useful as a metric of potential brain penetrance if the Kp value is >0.3.

Data set [3] in a line: Mouse Hepatocyte Stability Assay. The format is in vitro ADME. The conditions noted are these: mouse hepatocytes, 37° C.; read-out: Hep (mouse) (t½ min). The protocol: (§1) (v) Mouse and Human Hepatocyte Stability Assays
(§2) A hepatocyte stability assay is a laboratory-based method used to determine the metabolic stability of a compound in hepatocytes (liver cells). This assay provides valuable information about how quickly a drug is metabolized in the liver and can be used to assess its potential effectiveness and safety in drug discovery.
(§3) In the assay, cither human or mouse hepatocytes are incubated with the test compound at a controlled temperature of 37° C., for different time periods (e.g., 5, 15, 30, 60, and 120 minutes). At each time point during the incubation, samples are taken, the reaction is terminated, and the amount of test compound remaining analyzed using LC-MS/MS to monitor the disappearance of the test compound over time (Gradient). […] See, e.g., Coe et al., Methods in Pharmacology & Toxicology (2008) 151.

Data set [4] is described as follows: Human Hepatocyte Stability Assay. The format is in vitro ADME. The conditions noted are these: human hepatocytes, 37° C.; read-out: Hep (human) (t½ min). How it is done:
as §1, §2, §3

Data set [5] can be described thus: Solubility Protocol in Phosphate Buffered Saline (PBS). The format is physicochemical. As to conditions: for solubility kinetic at 2 h / solubility at 2 h: phosphate buffered saline (PBS), 18 °C, kinetic from dmso stock; for solubility kinetic at 2 h: aqueous buffer; for solubility kinetic at 2 h / Sol (PBS): PBS pH 7.4, 2 hours at room temperature, kinetic solubility; for solubility at 2 h: pH 7.4, aqueous buffer. The protocol:
(vi) Solubility Protocol in Phosphate Buffered Saline (PBS)
The kinetic solubility of test compounds and control compounds was measured in commercial phosphate buffered saline (PBS), pH 7.4 (Wisent, Canada).
Briefly, a stock solution (20 mM DMSO for controls, and 10 mM DMSO for test compounds) was combined with PBS buffer to reach a targeted concentration of 400 μM for controls and 200 μM for test compounds. The spiked-PBS mixtures were then agitated on a VX-2500 multi-tube vortexer (VWR) for 2 hours at room temperature (18° C.). Following agitation, the samples were filtered on a glass fiber filter (1 μm) and the eluates were diluted 400-fold with a mixture of acetonitrile:water (1:1). Solubility determination was then performed against one standard sample prepared in high organic content at the expected top concentration. The lower limit of quantification was arbitrarily set at 1 μM (400-fold dilution of the top concentration) for assay controls, and 0.5 μM for test compounds. On each experimental run, nicardipine and imipramine were assessed as reference compounds for low and high solubility, respectively. All samples were assessed in triplicate and analyzed by LC-MS/MS (using a CTC PAL autosampler, Thermo Accela UPLC, and a Thermo Quantum mass spectrometer) using electrospray ionization against standards prepared in the same matrix

[6] abbreviates: CDI, mouse, brain (whole brain homogenate) relative to plasma, oral, 20 mpk, brain levels, mice.
Setting [7] is: CDI, mouse, brain (whole brain homogenate) relative to plasma, po, 20 mg/kg, Kp corrected with mouse plasma protein binding and mouse brain homogenates binding, 20 mpk PO, read-out: Kpu,u.
Where [8] appears, read: CDI, mouse, brain (whole brain homogenate) relative to plasma, po, 20 mg/kg.
[9] abbreviates: CDI, mouse, brain (whole brain homogenate) relative to plasma, oral, 20 mpk, brain levels, unbound, mice, read-out: Kpu,u.

As for `Oc1cc(Cl)ccc1-c1nnc(N[C@@H]2C[C@@H]3CC[C@H]2O3)c2cnccc12` (single isomer, unassigned) [Compound 3A*], the IC50 in data set [1] was determined as 1.16 µM. Besides, the Kp in data set [2] (setting [6]) turned out to be 0.3. For the same molecule, the Kpu,u in data set [2] (setting [7]) was 0.15; in data set [2] (brain levels, unbound, mice), 0.15 —. This molecule returned a partition ratio (Kp) at 24 h in data set [2] (setting [8]) of 0.3. For the same molecule, the results for the half-life in data set [3] and in data set [4] were 2.17 h and > 4 h, respectively. The solubility (kinetic) at 2 h in data set [5] is > 300 µM. Further, in data set [5], the solubility at 2 h was > 300 µM.

Consider `Cc1ccc(-c2nnc(N[C@@H]3C[C@H]4CC[C@@H]3O4)c3cnccc23)c(O)c1` (single isomer, unassigned) [Compound 7C], for which 0.11 µM corresponded to half-maximal inhibition in data set [1] (IC50). The Kp in data set [2] (setting [6]) came out at 0.61. For the same molecule, the half-life amounted to 0.35 h in data set [3] and 4.67 h in data set [4].

Take `Oc1cc(C(F)(F)F)ccc1-c1nnc(N[C@@H]2C[C@@H]3CC[C@H]2O3)c2cnccc12` (single isomer, unassigned) [Compound 10A*]: 0.92 µM corresponded to half-maximal inhibition in data set [1] (IC50). In data set [2] (setting [6]), this molecule registered a Kp of 0.46. Besides, the Kpu,u in data set [2] (setting [7]) was 0.49; in data set [2] (brain levels, unbound, mice), 0.49. Also, in data set [2] (setting [8]), the Kp at 24 h was 0.46. Besides, the figures for the half-life in data set [3] and in data set [4] were 1.83 h and 3.17 h, respectively. In addition, the “Sol (PBS)” value in data set [5] came out at 2.1 µM. Besides, the concentration in solution in data set [5] (solubility at 2 h) was 2.1 µM (≈ 0.845 µg/mL).

Take `Oc1cc(C(F)(F)F)ccc1-c1nnc(N[C@@H]2C[C@H]3CC[C@@H]2O3)c2cnccc12` (single isomer, unassigned) [Compound 10C*]: the 50% inhibitory concentration (IC50) in data set [1] was found to be 0.81 µM. Further, the Kp in data set [2] (setting [6]) was determined as 0.48. The Kpu,u was 0.21 in data set [2] (setting [7]) and 0.21 in data set [2] (brain levels, unbound, mice). The molecule also registered a Kp at 24 h in data set [2] (setting [8]) of 0.48. In addition, the half-life worked out at 2.33 h in data set [3] and 7.83 h in data set [4].

As for `Cc1ccc(-c2nnc(N[C@H]3C[C@H]4CC[C@@H](C3)O4)c3cnccc23)c(O)c1` [Compound 2A*-r, 2-(4-(((1R,3r,5S)-8-oxabicyclo[3.2.1]octan-3-yl)amino)pyrido[3,4-d]pyridazin-1-yl)-5-methylphenol], 0.33 µM corresponded to half-maximal inhibition in data set [1] (IC50). The Kp in data set [2] (setting [6]) is 0.27. In addition, the Kpu,u in data set [2] (setting [9]) and in data set [2] (setting [7]) was 0.16 each time. This molecule showed a Kp at 24 h in data set [2] (setting [8]) of 0.27. Also, the half-life is 1.18 h in data set [3] and > 8 h in data set [4]. Besides, the “Sol (PBS)” value in data set [5] is 1.9 µM. This molecule returned a solubility at 2 h in data set [5] of 1.9 µM (≈ 0.689 µg/mL).

`Oc1cc(C(F)(F)F)ccc1-c1nnc(N[C@H]2C[C@H]3CC[C@@H](C2)O3)c2cnccc12` [Compound 4A*-r, 2-(4-(((1R,3r,5S)-8-oxabicyclo[3.2.1]octan-3-yl)amino)pyrido[3,4-d]pyridazin-1-yl)-5-(trifluoromethyl)phenol] had a half-maximal inhibitory concentration (IC50) in data set [1] of 1.1 µM. Besides, the Kp in data set [2] (setting [6]) stood at 0.13. Also, the Kpu,u in data set [2] (setting [9]) and in data set [2] (setting [7]) was 0.09 each time. The molecule further showed a Kp at 24 h in data set [2] (setting [8]) of 0.13. In addition, the half-life in data set [3] is 3.33 h; in data set [4], > 8 h. The “Sol (PBS)” value in data set [5] is 2.4 µM. In data set [5], this molecule registered a solubility at 2 h of 2.4 µM (≈ 0.999 µg/mL).

`Oc1cc(Cl)ccc1-c1nnc(N[C@H]2[C@@H]3CC[C@H]2COC3)c2cnccc12` [Compound 5A, 2-(4-(((1R,5S,8s)-3-oxabicyclo[3.2.1]octan-8-yl)amino)pyrido[3,4-d]pyridazin-1-yl)-5-chlorophenol] returned an IC50 in data set [1] of 0.15 µM. The molecule also yielded a Kp in data set [2] (setting [6]) of 0.87. Further, the Kpu,u in data set [2] (setting [9]) and in data set [2] (setting [7]) was 0.44 throughout. Moreover, the Kp at 24 h in data set [2] (setting [8]) turned out to be 0.87. The half-life was 2.67 h in data set [3] and > 4 h in data set [4]. Moreover, the “Sol (PBS)” value in data set [5] was determined as 25 µM. The molecule also yielded a solubility at 2 h in data set [5] of 25 µM (≈ 9.57 µg/mL).

On to `Cc1ccc(-c2nnc(N[C@H]3[C@@H]4CC[C@H]3COC4)c3cnccc23)c(O)c1` [Compound 6A, 2-(4-(((1R,5S,8s)-3-oxabicyclo[3.2.1]octan-8-yl)amino)pyrido[3,4-d]pyridazin-1-yl)-5-methylphenol], for which the IC50 in data set [1] worked out at 0.2 µM. Besides, the Kpu,u in data set [2] (setting [7]) was 0.51. This molecule yielded a partition ratio (Kp) at 24 h in data set [2] (setting [8]) of 0.76. Moreover, the half-life in data set [3] stood at 2.67 h. The half-life in data set [4] is > 4 h. In data set [5], the “Sol (PBS)” value is >300 µM and the solubility (kinetic) at 2 h was > 300 µM.

The molecule `Oc1cc(C(F)F)ccc1-c1nnc(N[C@H]2C[C@H]3CC[C@@H](C2)O3)c2cnccc12` [Compound 11A*-r, 2-(4-(((1R,3r,5S)-8-oxabicyclo[3.2.1]octan-3-yl)amino)pyrido[3,4-d]pyridazin-1-yl)-5-(difluoromethyl)phenol] gave an IC50 in data set [1] of 0.81 µM. Moreover, the Kpu,u in data set [2] (setting [7]) was determined as 0.06. This molecule also came in with a Kp at 24 h in data set [2] (setting [8]) of 0.08. Also, the half-life in data set [3] stood at 3.83 h. The half-life in data set [4] was > 4 h. In data set [5], the “Sol (PBS)” value was found to be 0.7 µM and the kinetic solubility at 2 h came out at 0.7 µM (≈ 0.279 µg/mL).
